According to publication PMC6222927, “Aminobenzosuberone Scaffold as a Modular Chemical Tool for the Inhibition of Therapeutically Relevant M1 Aminopeptidases” (Molecules : A Journal of Synthetic Chemistry and Natural …, 2018):
Where two headings read alike, the source gives them in different places. Marks after values point to notes of the source that are not given here. Blank lines part the entries; values can stand above or below the compound they belong to.

How the values were obtained:
[1] = molecular target: T1, P. falciparum rPfAM1 (Plasmodium falciparum, UniProt O96935); test: biochemical; type: biochemical
T1 construct: made in house; host or cells: Escherichia coli Rosetta 2 (DE3)
T1 sequence (O96935 1-1085): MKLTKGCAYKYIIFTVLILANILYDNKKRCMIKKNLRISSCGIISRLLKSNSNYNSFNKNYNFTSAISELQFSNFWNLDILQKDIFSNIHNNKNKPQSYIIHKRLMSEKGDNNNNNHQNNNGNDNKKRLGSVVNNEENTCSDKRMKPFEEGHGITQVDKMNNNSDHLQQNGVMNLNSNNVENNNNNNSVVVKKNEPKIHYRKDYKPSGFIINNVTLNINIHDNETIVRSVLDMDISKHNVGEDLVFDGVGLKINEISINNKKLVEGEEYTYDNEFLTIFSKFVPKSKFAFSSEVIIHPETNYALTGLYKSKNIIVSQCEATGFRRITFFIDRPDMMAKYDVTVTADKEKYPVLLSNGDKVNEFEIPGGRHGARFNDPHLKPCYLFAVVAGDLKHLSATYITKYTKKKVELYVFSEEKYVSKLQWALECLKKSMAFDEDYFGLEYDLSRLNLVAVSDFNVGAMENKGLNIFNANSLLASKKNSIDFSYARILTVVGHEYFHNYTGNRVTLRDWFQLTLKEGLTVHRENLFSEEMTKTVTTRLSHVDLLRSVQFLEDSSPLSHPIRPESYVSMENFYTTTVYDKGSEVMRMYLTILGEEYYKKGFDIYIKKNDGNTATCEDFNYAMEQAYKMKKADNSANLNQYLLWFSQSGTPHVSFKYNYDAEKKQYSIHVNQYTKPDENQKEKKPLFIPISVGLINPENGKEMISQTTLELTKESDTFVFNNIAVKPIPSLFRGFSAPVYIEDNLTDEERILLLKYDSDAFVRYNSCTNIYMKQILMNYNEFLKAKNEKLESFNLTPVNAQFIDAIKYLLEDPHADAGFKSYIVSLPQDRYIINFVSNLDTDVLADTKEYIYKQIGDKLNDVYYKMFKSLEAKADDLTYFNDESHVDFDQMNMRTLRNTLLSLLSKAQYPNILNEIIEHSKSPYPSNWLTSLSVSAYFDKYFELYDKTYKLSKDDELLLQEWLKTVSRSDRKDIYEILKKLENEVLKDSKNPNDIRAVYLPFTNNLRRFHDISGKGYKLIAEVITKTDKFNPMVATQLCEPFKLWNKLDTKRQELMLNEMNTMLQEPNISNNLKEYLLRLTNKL
Method: Initial velocities were measured with increasing concentrations of inhibitors and Ki values were determined by Dixon plots in triplicate.

[2] = molecular target: E. coli rEcPepN (Escherichia coli, UniProt P04825); test: rEcPepN inhibition, Leu-pNA substrate, Dixon method; type: biochemical
Method: Enzyme activity assays were carried out in 10 mM Tris-HCl buffer at pH 7.5 with 150 mM NaCl, enzyme, 100 µM substrate (Leu-pNA) in a 100 μL reaction at 37 °C. The absorbance was read at 405 nm. Concentrations ranging from 1 nM to 100 μM of inhibitors (dissolved in DMSO) were incubated with each of the enzymes ([…]) for 30 min at 37 °C in a 96 well plate. After addition of the substrate, immediate increase in absorption was measured. All inhibition assays were performed in triplicates and initial velocities were measured. Percentage inhibition and log values of inhibitor concentrations were plotted using SigmaPlot to determine IC50 values. Ki values were determined by the Dixon method. The assay consists of reaction buffer, enzyme and varied concentrations of Leu-pNA (25, 50, 100, 200 and 400 µM). […] Data were plotted as 1/rate versus inhibitor concentration for each substrate concentration and a linear fit was calculated by non-linear regression using SigmaPlot12.5. All the reactions were performed in triplicates, SD values were reported.

[3] = molecular target: pAPN from porcine kidney; settings: Dixon plots; cited from earlier work
[4] = molecular target: human leukotriene A4 hydrolase (rHsLTA4H); design: method as in PMID 21843945; settings: cited from earlier work; for Ki: ref 58; for % of inhibition of rHsLTA4H: determined at 100 µM
[5] = molecular target: aminopeptidase from A. proteolytica (AAP); design: method as in PMID 21843945; settings: ref 58; cited from earlier work
[6] = Octanol/water partition coefficient (logD7.4) by reversed-phase HPLC; settings: pH 7.4
Method: The flow was 0.9 mL/min. The aminobenzosuberone derivatives were dissolved at 0.4 µM in methanol. The standards were also dissolved in methanol. Column void volume was estimated from the retention time of uracil, which was included as a non-retained internal reference with each injection.

[7] = molecular target: human aminopeptidase A (HsAPA); settings: cited from earlier work
[8] = molecular target: human arginyl aminopeptidase B (HsAPB); settings: ref 38; cited from earlier work
[9] = molecular target: mammalian cytosolic leucine aminopeptidase (mLAPc); settings: cited from earlier work
[10] = molecular target: T2, human endoplasmic reticulum aminopeptidase 1 (rHsERAP1) (Homo sapiens, UniProt Q9NZ08); test: rHsERAP1 inhibition, L-AMC fluorigenic substrate; type: biochemical; settings: 50 µM L-AMC
T2 construct: made in house; host or cells: Hi5 insect cells (baculovirus produced in sf9)
Method: (§1) The enzymatic activity of HsERAP1, HsERAP2 and HsIRAP was determined by following the time-dependent increase in fluorescence at 460 nm (excitation: 380 nm) of the fluorigenic substrates L-Leucine-7-amido-4-methyl coumarin (L-AMC; Sigma, Darmstatd, Germany) for HsERAP1 and HsIRAP and L-arginyl-7-amido-4-methyl coumarin (R-AMC; Sigma) for HsERAP2. […] The reaction was followed for 10 min at room temperature and the remaining enzymatic activity was calculated by measuring the slope of the time course.

[11] = molecular target: T3, human endoplasmic reticulum aminopeptidase 2 (rHsERAP2) (Homo sapiens, UniProt Q6P179); test: rHsERAP2 inhibition, R-AMC fluorigenic substrate; type: biochemical; settings: 50 µM R-AMC
T3 construct: made in house; host or cells: Hi5 insect cells (baculovirus produced in sf9)
Method: as §1

[12] = molecular target: T4, human Leucyl-cystinyl aminopeptidase (rHsIRAP) (Homo sapiens, UniProt Q9UIQ6); test: rHsIRAP inhibition, L-AMC fluorigenic substrate; type: biochemical
T4 construct: made in house; host or cells: Hi5 insect cells (baculovirus produced in sf9)
Method: The enzymatic activity of HsERAP1, HsERAP2 and HsIRAP was determined by following the time-dependent increase in fluorescence at 460 nm (excitation: 380 nm) of the fluorigenic substrates L-Leucine-7-amido-4-methyl coumarin (L-AMC; Sigma, Darmstatd, Germany) for HsERAP1 and HsIRAP and L-arginyl-7-amido-4-methyl coumarin (R-AMC; Sigma) for HsERAP2. […]. The reaction was followed for 10 min at room temperature and the remaining enzymatic activity was calculated by measuring the slope of the time course. […]

[13] = molecular target: T5, P. falciparum rPfAM17 (Plasmodium falciparum, UniProt Q8IL11); test: rPfAM17 inhibition, Leu-pNA substrate, Dixon plots; type: biochemical
T5 construct: made in house; host or cells: Escherichia coli Rosetta 2 (DE3)
T5 sequence (Q8IL11 1-605): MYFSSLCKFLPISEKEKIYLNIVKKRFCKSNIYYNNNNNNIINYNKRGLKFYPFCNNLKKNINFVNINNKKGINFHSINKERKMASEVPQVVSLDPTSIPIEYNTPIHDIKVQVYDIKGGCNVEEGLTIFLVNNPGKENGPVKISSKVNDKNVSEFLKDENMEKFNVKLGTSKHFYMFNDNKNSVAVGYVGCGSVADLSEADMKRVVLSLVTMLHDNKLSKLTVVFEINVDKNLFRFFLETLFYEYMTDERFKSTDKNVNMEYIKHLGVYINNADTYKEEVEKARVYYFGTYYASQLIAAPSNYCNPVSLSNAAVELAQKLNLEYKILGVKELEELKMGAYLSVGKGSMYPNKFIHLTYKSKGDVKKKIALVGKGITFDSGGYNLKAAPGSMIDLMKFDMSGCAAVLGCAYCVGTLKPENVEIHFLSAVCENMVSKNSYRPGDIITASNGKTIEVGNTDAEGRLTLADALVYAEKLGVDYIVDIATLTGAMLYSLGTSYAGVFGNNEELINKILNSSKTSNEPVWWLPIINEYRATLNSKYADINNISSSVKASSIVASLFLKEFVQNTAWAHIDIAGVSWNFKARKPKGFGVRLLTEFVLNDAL
Method: Tests were carried out on HP/Agilent UV-Visible diode array spectrophotometer 8453 (HP/Agilent, Santa Clara, CA, USA), at 30 °C in Tris HCl 50 mM pH 7.4 for rPfAM1 and pH 8 for rPfAM17, with a final DMSO concentration of 1%. […]. […] Initial velocities were measured with increasing concentrations of inhibitors and Ki values were determined by Dixon plots in triplicate.

[14] = molecular target: mammalian aminopeptidase N (mAPN); settings: cited from earlier work
[15] = molecular target: human puromycine sensitive aminopeptidase (HsPSA); settings: cited from earlier work
[16] = tested on: E. coli (EcPepN) M1 aminopeptidase; settings: ref 49; cited from earlier work
[17] = molecular target: P. falciparum (PfAM1) M1 aminopeptidase; settings: cited from earlier work
[18] = molecular target: human puromycine sensitive aminopeptidase (rHsPSA) (Homo sapiens, UniProt P55786); test: rHsPSA inhibition, Leu-pNA substrate, Dixon method; type: biochemical; settings: triplicate, SD
Method: Enzyme activity assays were carried out in 10 mM Tris-HCl buffer at pH 7.5 with 150 mM NaCl, enzyme, 100 µM substrate (Leu-pNA) in a 100 μL reaction at 37 °C. The absorbance was read at 405 nm. Concentrations ranging from 1 nM to 100 μM of inhibitors (dissolved in DMSO) were incubated with each of the enzymes ([…]) for 30 min at 37 °C in a 96 well plate. After addition of the substrate, immediate increase in absorption was measured. All inhibition assays were performed in triplicates and initial velocities were measured. Percentage inhibition and log values of inhibitor concentrations were plotted using SigmaPlot to determine IC50 values. Ki values were determined by the Dixon method. The assay consists of reaction buffer, enzyme and varied concentrations of Leu-pNA (25, 50, 100, 200 and 400 µM). […]. All the reactions were performed in triplicates, SD values were reported.

[19] = molecular target: human leukotriene A4 hydrolase (HsLTA4H); settings: ref 37; cited from earlier work
[20] = molecular target: P. falciparum M17 aminopeptidase (PfAM17); settings: ref 45; cited from earlier work
[21] = Dixon plots, triplicate, read-out: Ki rPfAM1
[22] = 50 µM L-AMC, read-out: IC50 rHsIRAP

T4 sequence (Q9UIQ6 155-1025 limits assumed): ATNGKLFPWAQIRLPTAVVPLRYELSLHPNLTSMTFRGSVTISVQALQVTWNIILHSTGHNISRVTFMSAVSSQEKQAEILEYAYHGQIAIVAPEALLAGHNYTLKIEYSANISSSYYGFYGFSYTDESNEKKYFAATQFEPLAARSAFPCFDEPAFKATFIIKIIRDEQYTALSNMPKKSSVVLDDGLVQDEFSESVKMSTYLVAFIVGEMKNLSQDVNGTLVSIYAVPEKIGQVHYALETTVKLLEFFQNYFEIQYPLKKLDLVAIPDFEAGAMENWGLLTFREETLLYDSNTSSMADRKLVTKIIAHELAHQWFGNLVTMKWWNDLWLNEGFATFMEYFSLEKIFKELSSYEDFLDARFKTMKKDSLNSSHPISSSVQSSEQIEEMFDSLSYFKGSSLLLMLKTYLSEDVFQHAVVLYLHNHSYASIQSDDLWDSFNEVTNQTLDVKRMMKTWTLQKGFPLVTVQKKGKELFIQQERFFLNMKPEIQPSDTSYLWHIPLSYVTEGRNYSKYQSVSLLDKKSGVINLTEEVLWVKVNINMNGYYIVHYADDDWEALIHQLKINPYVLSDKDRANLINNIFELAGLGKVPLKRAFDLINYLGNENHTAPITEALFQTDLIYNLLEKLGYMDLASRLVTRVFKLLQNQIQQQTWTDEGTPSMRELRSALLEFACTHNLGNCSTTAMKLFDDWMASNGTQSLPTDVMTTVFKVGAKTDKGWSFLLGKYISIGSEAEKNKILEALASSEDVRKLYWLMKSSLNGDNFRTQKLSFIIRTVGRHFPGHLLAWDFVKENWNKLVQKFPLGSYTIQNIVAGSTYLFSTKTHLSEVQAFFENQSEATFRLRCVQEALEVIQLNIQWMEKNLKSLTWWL
T2 sequence (Q9NZ08 whole entry): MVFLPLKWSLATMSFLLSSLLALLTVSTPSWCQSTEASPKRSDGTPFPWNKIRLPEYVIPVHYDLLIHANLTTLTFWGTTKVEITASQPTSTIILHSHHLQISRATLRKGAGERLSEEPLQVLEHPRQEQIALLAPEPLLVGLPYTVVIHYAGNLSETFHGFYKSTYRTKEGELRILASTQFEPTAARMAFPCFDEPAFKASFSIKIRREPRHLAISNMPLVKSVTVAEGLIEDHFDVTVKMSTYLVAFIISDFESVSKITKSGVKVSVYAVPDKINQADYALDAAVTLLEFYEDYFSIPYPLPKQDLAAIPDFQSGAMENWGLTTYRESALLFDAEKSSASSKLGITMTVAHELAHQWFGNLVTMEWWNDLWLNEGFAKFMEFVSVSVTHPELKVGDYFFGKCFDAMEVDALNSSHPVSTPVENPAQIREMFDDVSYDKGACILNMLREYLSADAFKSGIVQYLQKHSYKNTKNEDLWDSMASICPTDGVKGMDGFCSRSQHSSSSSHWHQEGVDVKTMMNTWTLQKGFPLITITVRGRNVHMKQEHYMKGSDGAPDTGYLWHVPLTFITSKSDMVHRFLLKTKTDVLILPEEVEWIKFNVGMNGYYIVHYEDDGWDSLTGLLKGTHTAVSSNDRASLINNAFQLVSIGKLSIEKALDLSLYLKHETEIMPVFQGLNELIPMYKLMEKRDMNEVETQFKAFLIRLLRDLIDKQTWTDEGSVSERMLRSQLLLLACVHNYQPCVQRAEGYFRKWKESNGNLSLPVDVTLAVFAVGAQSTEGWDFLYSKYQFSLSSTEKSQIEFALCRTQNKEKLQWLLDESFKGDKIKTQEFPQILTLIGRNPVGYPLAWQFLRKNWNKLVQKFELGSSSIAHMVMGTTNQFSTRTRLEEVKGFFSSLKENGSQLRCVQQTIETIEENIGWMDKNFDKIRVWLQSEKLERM
T3 sequence (Q6P179 whole entry): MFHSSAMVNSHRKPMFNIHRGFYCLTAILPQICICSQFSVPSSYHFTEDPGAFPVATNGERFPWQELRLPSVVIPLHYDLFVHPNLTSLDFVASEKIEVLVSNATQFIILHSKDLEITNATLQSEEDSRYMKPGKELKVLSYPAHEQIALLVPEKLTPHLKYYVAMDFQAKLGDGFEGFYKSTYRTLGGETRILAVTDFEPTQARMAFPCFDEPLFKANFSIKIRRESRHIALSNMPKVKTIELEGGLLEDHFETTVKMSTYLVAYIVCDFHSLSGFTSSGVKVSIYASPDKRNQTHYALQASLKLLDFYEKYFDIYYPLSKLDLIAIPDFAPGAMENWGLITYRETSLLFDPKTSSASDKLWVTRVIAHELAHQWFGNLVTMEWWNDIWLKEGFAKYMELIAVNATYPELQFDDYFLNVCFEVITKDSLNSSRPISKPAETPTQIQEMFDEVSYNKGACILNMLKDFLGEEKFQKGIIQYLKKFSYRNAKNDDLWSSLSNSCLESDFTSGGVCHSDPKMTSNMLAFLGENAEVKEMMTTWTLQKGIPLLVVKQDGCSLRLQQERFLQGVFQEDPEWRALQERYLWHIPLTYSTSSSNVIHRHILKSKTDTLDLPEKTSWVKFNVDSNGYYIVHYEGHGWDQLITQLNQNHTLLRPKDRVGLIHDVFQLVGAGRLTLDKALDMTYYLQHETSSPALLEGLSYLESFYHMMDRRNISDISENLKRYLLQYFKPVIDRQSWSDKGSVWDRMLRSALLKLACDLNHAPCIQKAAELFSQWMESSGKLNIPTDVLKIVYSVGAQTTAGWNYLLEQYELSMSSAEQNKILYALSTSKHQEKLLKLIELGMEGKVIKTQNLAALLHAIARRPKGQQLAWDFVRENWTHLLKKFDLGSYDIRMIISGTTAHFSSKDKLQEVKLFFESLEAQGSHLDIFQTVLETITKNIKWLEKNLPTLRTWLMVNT
Sequence of E. coli rEcPepN (P04825 whole entry): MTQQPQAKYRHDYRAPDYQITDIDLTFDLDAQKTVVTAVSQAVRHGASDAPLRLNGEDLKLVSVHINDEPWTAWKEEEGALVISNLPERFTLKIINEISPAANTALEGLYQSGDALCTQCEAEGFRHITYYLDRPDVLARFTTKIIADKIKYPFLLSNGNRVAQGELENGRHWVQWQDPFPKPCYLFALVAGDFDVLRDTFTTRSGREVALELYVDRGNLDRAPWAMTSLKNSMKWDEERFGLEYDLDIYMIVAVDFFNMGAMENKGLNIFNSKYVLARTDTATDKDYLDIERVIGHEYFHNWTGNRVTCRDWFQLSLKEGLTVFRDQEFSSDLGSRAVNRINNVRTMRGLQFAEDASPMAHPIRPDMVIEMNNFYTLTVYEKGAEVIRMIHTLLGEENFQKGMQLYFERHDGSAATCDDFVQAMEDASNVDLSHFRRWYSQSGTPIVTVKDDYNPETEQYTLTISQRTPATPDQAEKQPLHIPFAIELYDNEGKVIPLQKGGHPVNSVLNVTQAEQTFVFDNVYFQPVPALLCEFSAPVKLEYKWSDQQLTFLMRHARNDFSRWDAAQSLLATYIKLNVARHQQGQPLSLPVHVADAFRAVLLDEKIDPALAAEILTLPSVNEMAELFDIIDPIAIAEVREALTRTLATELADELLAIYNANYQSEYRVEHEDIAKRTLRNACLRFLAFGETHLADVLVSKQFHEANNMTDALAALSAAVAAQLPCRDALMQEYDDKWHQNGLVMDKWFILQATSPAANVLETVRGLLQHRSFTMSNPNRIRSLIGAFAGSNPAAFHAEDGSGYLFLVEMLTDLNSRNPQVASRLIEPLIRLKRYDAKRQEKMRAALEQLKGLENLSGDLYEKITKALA
Sequence of human puromycine sensitive aminopeptidase (rHsPSA) (P55786 whole entry): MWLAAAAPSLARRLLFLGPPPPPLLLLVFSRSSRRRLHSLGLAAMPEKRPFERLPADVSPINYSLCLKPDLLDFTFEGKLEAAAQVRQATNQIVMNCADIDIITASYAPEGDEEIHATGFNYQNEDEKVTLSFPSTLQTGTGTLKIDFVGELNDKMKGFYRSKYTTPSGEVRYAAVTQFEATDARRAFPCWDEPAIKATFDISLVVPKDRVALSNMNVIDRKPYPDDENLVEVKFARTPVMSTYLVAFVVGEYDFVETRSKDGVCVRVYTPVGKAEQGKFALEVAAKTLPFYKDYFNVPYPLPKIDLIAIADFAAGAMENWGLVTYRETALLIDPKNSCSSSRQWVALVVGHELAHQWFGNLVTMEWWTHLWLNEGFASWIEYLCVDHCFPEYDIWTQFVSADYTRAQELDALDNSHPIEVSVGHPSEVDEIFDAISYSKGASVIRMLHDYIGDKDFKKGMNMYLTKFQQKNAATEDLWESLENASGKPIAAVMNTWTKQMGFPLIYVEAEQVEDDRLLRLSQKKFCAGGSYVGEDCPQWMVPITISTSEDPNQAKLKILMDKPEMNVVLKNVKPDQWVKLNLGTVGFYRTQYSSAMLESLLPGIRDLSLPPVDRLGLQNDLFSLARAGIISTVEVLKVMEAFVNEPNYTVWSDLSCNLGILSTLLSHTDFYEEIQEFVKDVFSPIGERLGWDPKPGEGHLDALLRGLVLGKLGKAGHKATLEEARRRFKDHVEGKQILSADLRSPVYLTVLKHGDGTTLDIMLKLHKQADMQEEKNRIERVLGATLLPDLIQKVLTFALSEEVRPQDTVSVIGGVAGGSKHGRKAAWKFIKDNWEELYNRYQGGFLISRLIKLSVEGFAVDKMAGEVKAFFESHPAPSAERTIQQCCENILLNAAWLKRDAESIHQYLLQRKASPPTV

Compound: NC1CCc2ccccc2CC1=O (centres unmarked) [21a]
Ki [1, 21]: 15 ± 0.07 µM | Ki [2]: 50 ± 3 µM | Ki [3]: 1000 nM | Ki [4]: > 100 µM | Ki [5]: > 100 µM | chromatographic logD [6]: 0.54

Compound: NC1Cc2ccc3ccccc3c2CC1=O (centres unmarked) [compound 5]
Ki ([7]; NI = no inhibition): > 1000 µM | Ki [8]: > 1000 µM | Ki ([9]; ref 38): 3 µM

Ki [1, 21]: 4 ± 0.7 µM | chromatographic logD [6]: 3.06
Compound: NC1CCc2c(-c3ccccc3)ccc(Br)c2CC1=O (centres unmarked) [21j]
Ki [3]: 70 nM | % of inhibition of rHsLTA4H [4]: 54% ^# | Ki [5]: > 100 µM

Compound: NC1CCc2c(cccc2-c2ccccc2)CC1=O (centres unmarked) [21f]
Ki [1]: 2 ± 0.07 µM | IC50 [10]: 137 ± 5 µM | IC50 [11]: > 200 µM | IC50 [12, 22]: 2.2 ± 0.13 µM | Ki [13]: > 100 µM | Ki [3]: 250 nM | Ki [4]: > 100 µM | Ki [5]: > 100 µM | chromatographic logD [6]: 2.22

Compound: N[C@H](CS)CCC(=O)O [compound 6]
Ki ([7]; ref 50): 0.14 µM

Compound: CCOC(=O)C1=C(Nc2ccccc2)CC(c2ccccn2)N(c2ccccc2)C1c1cccnc1 (centres unmarked) [compound 4]
Ki ([14]; ref 49): > 100 µM | IC50 ([15]; ref 49): 1.79 µM | Ki [16]: > 100 µM | Ki ([17]; ref 49): > 100 µM

Compound: CCc1cccc(CC)c1N1C(=O)c2cccc3cccc(c23)C1=O [compound 12]
Ki ([14]; ref 55): > 100 µM | IC50 ([15]; ref 55): 0.8 µM

Ki [1, 21]: 15 ± 1 µM | chromatographic logD [6]: 1.67
Compound: NC1CCc2c(ccc3ccccc23)CC1=O (centres unmarked) [21g]
Ki [3]: 40 nM | Ki [4]: > 100 µM | Ki [5]: > 100 µM

Compound: O=C(CCc1ccc(F)cc1)/C(=C/c1ccccc1)C(=O)NO [compound 10]
IC50 ([14]; ref 35, 53): 1.37 µM | IC50 ([17]; ref 35, 53): 0.006 µM

Compound: NC1CCc2c(Br)ccc(-c3ccccc3)c2CC1=O (centres unmarked) [21i]
Ki [1]: 0.03 ± 0.005 µM | Ki ([2]; Dixon method, triplicate, SD, read-out: Ki rEcPepN): 0.05 ± 0.003 µM | times more potent than 21c on EcPepN ([2]; ratio of Ki values, 21i versus 21c): 3 | IC50 [10]: 1.6 ± 0.1 µM | IC50 [11]: 0.39 ± 0.013 µM | Ki [18]: 0.021 ± 0.003 µM | IC50 [12]: 0.12 ± 0.015 µM | Ki [3]: 0.06 nM | % of inhibition of rHsLTA4H [4]: 68% ^# | Ki [5]: 39 µM | chromatographic logD [6]: 3.12

Compound: NC1CCc2cccc(Br)c2CC1=O (centres unmarked) [21b]
Ki [2]: 1.07 ± 0.11 µM | IC50 [10]: 120 ± 11 µM | IC50 [11]: 49 ± 3.8 µM | Ki [18]: 1.63 ± 0.08 µM | IC50 [12, 22]: 1 ± 0.08 µM | Ki [13]: > 100 µM | Ki [3]: 40 nM | Ki [4]: > 100 µM | Ki [5]: > 100 µM | chromatographic logD [6]: 1.28

Compound: CC(C)C[C@@H](C(=O)N[C@H](C(=O)O)c1ccccc1)[C@H](O)C(=O)NO [compound 8]
IC50 [19]: 0.008 µM | IC50 ([15]; ref 37): 0.85 µM | IC50 ([9]; ref 37): 0.03 µM

Compound: NC(CCc1ccccc1)P(=O)(O)CC(Cc1ccccc1)C(=O)O (centres unmarked) [compound 2]
Ki ([14]; ref 46): 0.002 µM | Ki ([17]; ref 47): 0.079 µM | Ki [20]: 0.013 µM

Compound: NC1CCc2c(Br)ccc(Br)c2CC1=O (centres unmarked) [21h]
Ki [1, 21]: 0.005 ± 0.001 µM | IC50 [12]: 0.034 ± 0.001 µM | Ki ([12]; read-out: Ki HsIRAP): 0.034 µM | chromatographic logD [6]: 2.48
